We go through one compound from US20260337228A1, “COMPOSITION AND METHOD FOR TREATING NEONATAL HYPOXIC-ISCHEMIC ENCEPHALOPATHY” (SUZHOU GLENKOL PHARMA TECHNOLOGY CO., LTD., priority 2023, published 2026).

The test system of assay [1] is cerebral cortical neural cells. Description: Lactate dehydrogenase (LDH) cytotoxicity assay after oxygen-glucose deprivation. Format: cell-based, neonatal rat. Conditions: 2 mM NaP, positive control; 24 hours after injury; vs untreated oxygen-glucose deprivation group, p<0.05. On the procedure: Culture of cerebral cortical neural cells: The brains of neonatal rats were dissected, the meninges removed, and the cerebral cortex isolated. The cortical tissues were digested with papain, single cells collected, and plated onto lysine-treated coverslips and cultured in Neurobasal™ serum-free medium. To mimic hypoxic-ischemic encephalopathy injury in vitro, the Neurobasal medium was replaced with DMEM medium at 7 days in vitro (DIV7), and cells were cultured under 21% O2/5% CO2 for 2.5 hours to serve as the control group, or Neurobasal medium replaced with glucose-free DMEM medium and cells cultured under 0% O2/5% CO2 for 2.5 hours to serve as the oxygen-glucose deprivation treatment group. After treatment, both groups were returned to Neurobasal medium and cultured normally under 21% O2/5% CO2 for 24 hours. […]
Lactate dehydrogenase (LDH) kit cytotoxicity assay: After 24 hours of normal culture, collect the cell culture supernatant from each group, add the LDH assay working solution, mix thoroughly, and incubate at room temperature in the dark for 30 minutes. Then, measure the absorbance at 490 nm and calculate the LDH release level, which indicates cytotoxicity. […]

The test system of assay [2] is cerebral cortical neural cells. The assay is described as follows: MTT assay for cell viability after oxygen-glucose deprivation. Type of assay: cell-based, neonatal rat. Conditions: 2 mM NaP, positive control; 24 hours after injury; vs untreated oxygen-glucose deprivation group, p<0.05. On the procedure: Culture of cerebral cortical neural cells: The brains of neonatal rats were dissected, the meninges removed, and the cerebral cortex isolated. The cortical tissues were digested with papain, single cells collected, and plated onto lysine-treated coverslips and cultured in Neurobasal™ serum-free medium. To mimic hypoxic-ischemic encephalopathy injury in vitro, the Neurobasal medium was replaced with DMEM medium at 7 days in vitro (DIV7), and cells were cultured under 21% O2/5% CO2 for 2.5 hours to serve as the control group, or Neurobasal medium replaced with glucose-free DMEM medium and cells cultured under 0% O2/5% CO2 for 2.5 hours to serve as the oxygen-glucose deprivation treatment group. After treatment, both groups were returned to Neurobasal medium and cultured normally under 21% O2/5% CO2 for 24 hours.
S1 Pretreatment: At the start of the oxygen-glucose deprivation treatment, cells were simultaneously treated with S1 (final concentrations of 0.01 μM, 0.1 μM, 1 μM, or 10 μM), or with the scrambled peptide Tat-NRRRNSKLQHKKY (SEQ ID NO: 10), or with NaP (Davunetide) as a control.
MTT assay for cell viability: After 24 hours of normal culture, MTT solution was added to each group and cultured for an additional 4 hours. […] Then, measure the absorbance at 490 nm and calculate the MTT formation level, which indicates cell viability. […]
On the technique in general: Tetrazolium dyes change colour on reduction, which living cells bring about.

Consider `CC[C@H](C)[C@H](NC(=O)[C@H](CO)NC(=O)[C@@H](NC(=O)[C@@H]1CCCN1C(=O)[C@H](C)NC(=O)[C@@H](N)CC(N)=O)C(C)C)C(=O)N1CCC[C@H]1C(=O)N[C@@H](CCC(N)=O)C(=O)O` [NaP, Davunetide], for which the LDH release levels result in assay [1] is listed as “significantly reduced LDH release levels”. Further, the MTT formation levels result in assay [2] is given as “significantly increased MTT formation levels”.
